Assay results: ChEMBL document CHEMBL1201862, “PubChem BioAssay data set” (2004)
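Grown in 96-well plates, cells were treated for 48 hours with each compound at five concentrations. Insufficient inhibition: endpoint recorded as highest concentration tested. At the GI50, growth is halved.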 The source made the active and inactive calls. No stated cut-off is given here; in the data, active = GI50 up to about 1.1 µM and inactive = higher.

Tests used:
Experiment in all cases: NCI-60 cell line screen, 48 h
786-0 = tested on: 786-0
A498 = tested on: A498
A549 = tested on: A549
ACHN = tested on: ACHN
BT-549 = tested on: BT-549
CAKI-1 = tested on: CAKI-1
COLO 205 = tested on: COLO 205
DU-145 = tested on: DU-145
EKVX = tested on: EKVX
HCC 2998 = tested on: HCC 2998
HCT-116 = tested on: HCT-116
HCT-15 = tested on: HCT-15
HOP-62 = tested on: HOP-62
HOP-92 = tested on: HOP-92
Hs-578T = tested on: Hs-578T
IGROV-1 = tested on: IGROV-1
K562 = tested on: K562
KM12 = tested on: KM12
LOX IMVI = tested on: LOX IMVI
M14 = tested on: M14
MCF7 = tested on: MCF7
MDA-MB-231 = tested on: MDA-MB-231
MDA-MB-435 = tested on: MDA-MB-435
MDA-N = tested on: MDA-N
MOLT-4 = tested on: MOLT-4
Malme-3M = tested on: Malme-3M
NCI-H226 = tested on: NCI-H226
NCI-H23 = tested on: NCI-H23
NCI-H460 = tested on: NCI-H460
NCI/ADR-RES = tested on: NCI/ADR-RES
OVCAR-3 = tested on: OVCAR-3
OVCAR-4 = tested on: OVCAR-4
OVCAR-5 = tested on: OVCAR-5
OVCAR-8 = tested on: OVCAR-8
PC-3 = tested on: PC-3
RPMI-8226 = tested on: RPMI-8226
RXF 393 = tested on: RXF 393
SF-268 = tested on: SF-268
SF-295 = tested on: SF-295
SK-MEL-28 = tested on: SK-MEL-28
SK-MEL-2 = tested on: SK-MEL-2
SK-OV-3 = tested on: SK-OV-3
SN12C = tested on: SN12C
SNB-19 = tested on: SNB-19
SNB-75 = tested on: SNB-75
SR = tested on: SR
SW-620 = tested on: SW-620
T47D = tested on: T47D
TK-10 = tested on: TK-10
U-251 = tested on: U-251
UACC-257 = tested on: UACC-257
UACC-62 = tested on: UACC-62
UO-31 = tested on: UO-31
CCRF-CEM = tested on: CCRF-CEM
HL-60 = tested on: HL-60
HT-29 = tested on: HT-29
NCI-H522 = tested on: NCI-H522
SF-539 = tested on: SF-539
SK-MEL-5 = tested on: SK-MEL-5

COC(=O)C1=C(C(=O)OC)c2cc(OC)ccc2C(C(=S)N(C)C)S1 (centres undefined)
GI50 (786-0): > 100 µM (inactive)
GI50 (A498): > 100 µM (inactive)
GI50 (A549): > 100 µM (inactive)
GI50 (ACHN): > 100 µM (inactive)
GI50 (BT-549): 19.2 µM (inactive)
GI50 (CAKI-1): 99.1 µM (inactive)
GI50 (COLO 205): > 100 µM (inactive)
GI50 (DU-145): > 100 µM (inactive)
GI50 (EKVX): > 100 µM (inactive)
GI50 (HCC 2998): > 100 µM (inactive)
GI50 (HCT-116): > 100 µM (inactive)
GI50 (HCT-15): > 100 µM
GI50 (HOP-62): > 100 µM (inactive)
GI50 (HOP-92): 0.0111 µM (active)
GI50 (Hs-578T): > 100 µM (inactive)
GI50 (IGROV-1): > 100 µM (inactive)
GI50 (K562): > 100 µM (inactive)
GI50 (KM12): > 100 µM (inactive)
GI50 (LOX IMVI): > 100 µM (inactive)
GI50 (M14): > 100 µM (inactive)
GI50 (MCF7): > 100 µM (inactive)
GI50 (MDA-MB-231): > 100 µM (inactive)
GI50 (MDA-MB-435): > 100 µM (inactive)
GI50 (MDA-N): > 100 µM (inactive)
GI50 (MOLT-4): > 100 µM (inactive)
GI50 (Malme-3M): > 100 µM (inactive)
GI50 (NCI-H226): > 100 µM (inactive)
GI50 (NCI-H23): > 100 µM (inactive)
GI50 (NCI-H460): > 100 µM (inactive)
GI50 (NCI/ADR-RES): > 100 µM (inactive)
GI50 (OVCAR-3): > 100 µM (inactive)
GI50 (OVCAR-4): > 100 µM (inactive)
GI50 (OVCAR-5): > 100 µM (inactive)
GI50 (OVCAR-8): > 100 µM (inactive)
GI50 (PC-3): > 100 µM (inactive)
GI50 (RPMI-8226): > 100 µM (inactive)
GI50 (RXF 393): > 100 µM (inactive)
GI50 (SF-268): > 100 µM (inactive)
GI50 (SF-295): > 100 µM (inactive)
GI50 (SK-MEL-28): > 100 µM (inactive)
GI50 (SK-MEL-2): > 100 µM (inactive)
GI50 (SK-OV-3): > 100 µM (inactive)
GI50 (SN12C): > 100 µM (inactive)
GI50 (SNB-19): > 100 µM (inactive)
GI50 (SNB-75): > 100 µM (inactive)
GI50 (SR): > 100 µM (inactive)
GI50 (SW-620): > 100 µM (inactive)
GI50 (T47D): > 100 µM (inactive)
GI50 (TK-10): > 100 µM (inactive)
GI50 (U-251): > 100 µM (inactive)
GI50 (UACC-257): > 100 µM (inactive)
GI50 (UACC-62): > 100 µM (inactive)
GI50 (UO-31): > 100 µM (inactive)

COc1cc2c(cc1OC)C1C(O)C(OC)C=C3CC[N+](C)(C2)C31 (centres undefined)
GI50 (786-0): > 100 µM (inactive)
GI50 (A498): > 100 µM (inactive)
GI50 (A549): > 100 µM (inactive)
GI50 (ACHN): > 100 µM (inactive)
GI50 (BT-549): > 100 µM (inactive)
GI50 (CAKI-1): > 100 µM (inactive)
GI50 (CCRF-CEM): > 100 µM (inactive)
GI50 (COLO 205): > 100 µM (inactive)
GI50 (DU-145): > 100 µM (inactive)
GI50 (EKVX): > 100 µM (inactive)
GI50 (HCC 2998): > 100 µM (inactive)
GI50 (HCT-116): > 100 µM (inactive)
GI50 (HCT-15): > 100 µM
GI50 (HL-60): > 100 µM (inactive)
GI50 (HOP-62): > 100 µM (inactive)
GI50 (HOP-92): > 100 µM (inactive)
GI50 (HT-29): > 100 µM (inactive)
GI50 (Hs-578T): > 100 µM (inactive)
GI50 (IGROV-1): > 100 µM (inactive)
GI50 (KM12): > 100 µM (inactive)
GI50 (M14): > 100 µM (inactive)
GI50 (MCF7): > 100 µM (inactive)
GI50 (MDA-MB-231): > 100 µM (inactive)
GI50 (MDA-MB-435): > 100 µM (inactive)
GI50 (MDA-N): > 100 µM (inactive)
GI50 (MOLT-4): > 100 µM (inactive)
GI50 (Malme-3M): > 100 µM (inactive)
GI50 (NCI-H226): > 100 µM (inactive)
GI50 (NCI-H23): > 100 µM (inactive)
GI50 (NCI-H460): > 100 µM (inactive)
GI50 (NCI-H522): > 100 µM (inactive)
GI50 (NCI/ADR-RES): > 100 µM (inactive)
GI50 (OVCAR-3): > 100 µM (inactive)
GI50 (OVCAR-4): > 100 µM (inactive)
GI50 (OVCAR-5): > 100 µM (inactive)
GI50 (OVCAR-8): > 100 µM (inactive)
GI50 (PC-3): > 100 µM (inactive)
GI50 (RPMI-8226): > 100 µM (inactive)
GI50 (RXF 393): > 100 µM (inactive)
GI50 (SF-268): > 100 µM (inactive)
GI50 (SF-295): > 100 µM (inactive)
GI50 (SF-539): > 100 µM (inactive)
GI50 (SK-MEL-28): > 100 µM (inactive)
GI50 (SK-MEL-2): > 100 µM (inactive)
GI50 (SK-MEL-5): > 100 µM (inactive)
GI50 (SK-OV-3): > 100 µM (inactive)
GI50 (SN12C): > 100 µM (inactive)
GI50 (SNB-19): > 100 µM (inactive)
GI50 (SNB-75): > 100 µM (inactive)
GI50 (SW-620): > 100 µM (inactive)
GI50 (T47D): > 100 µM (inactive)
GI50 (TK-10): > 100 µM (inactive)
GI50 (U-251): > 100 µM (inactive)
GI50 (UACC-257): > 100 µM (inactive)
GI50 (UACC-62): > 100 µM (inactive)
GI50 (UO-31): > 100 µM (inactive)
